Measured values as given in patent publication US10028992B2, “Methods of treating muscular dystrophy” (BOARD OF REGENTS OF THE NEVADA SYSTEM OF HIGHER EDUCATION …, priority 2012, dated 2018).

Tested on: α7 integrin promoter
Experiment: muscle cell-based assay: α7βgal+/− myoblasts/myotubes, LacZ reporter, β-galactosidase cleavage of FDG
Set-up: species or system mouse; Results in α7+/− β-galactosidase assay: scale not given here
Conditions: for Results in α7+/− β-galactosidase assay / Result in α7+/− β-galactosidase assay: Myoblasts; for EC50 / AC50: Mus musculus; for EC50: given as log AC50 (negative values), read-out: Fit LogAC50 (converted); for Fit Curve Class: key not given; for AC50: log of AC50, given with negative sign, unit of AC50 not given, read-out: Fit Log AC50 (converted); for Results in a α7+/− β-galactosidase assay, Myotubes, 0.5 uM: compound at 0.5 uM; for Results in a α7+/− β-galactosidase assay, Myotubes, 1 uM: compound at 1 uM; for Results in a α7+/− β-galactosidase assay, Myotubes, 5 uM: compound at 5 uM; for Results in a α7+/− β-galactosidase assay, Myotubes, 10 uM: compound at 10 uM; for Results in a α7+/− β-galactosidase assay, Myotubes, 20 uM: compound at 20 uM; for Results in a α7+/− β-galactosidase assay, Myotubes, 40 uM: compound at 40 uM
Procedure, shortened: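 Primary α7βgal+/− mouse myoblasts (LacZ knocked into α7 integrin exon 1, promoter retained), differentiated; promoter activity read as β-galactosidase conversion of non-fluorescent FDG to fluorescein. Hits followed by dose-response, western analysis and myostatin counterscreen.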

[1] = curve fit, activity at zero concentration
[2] = Table 12, fitted activity at zero concentration
[3] = Table 12 Compound data, concentration-response curve fit

CCO/C(C)=C1\C(=O)Nc2ccccc21 [drawing 705]
Results in α7+/− β-galactosidase assay (0.5 uM): −0.00711
Results in α7+/− β-galactosidase assay (1 uM): 0.04915
Results in α7+/− β-galactosidase assay (5 uM): 0.06742
Results in α7+/− β-galactosidase assay (10 uM): 0.09535
Results in α7+/− β-galactosidase assay (20 uM): −0.0389
Results in α7+/− β-galactosidase assay (40 uM): −0.1063

O=C1Nc2ccccc2/C1=C1/Nc2ccccc2/C1=N\O [drawing 726]
Result in α7+/− β-galactosidase assay (0.5 uM): 0.07252
Result in α7+/− β-galactosidase assay (1 uM): 0.1204
Result in α7+/− β-galactosidase assay (5 uM): −0.1537
Result in α7+/− β-galactosidase assay (10 uM): −0.432
Result in α7+/− β-galactosidase assay (20 uM): −0.6932
Result in α7+/− β-galactosidase assay (40 uM): −0.758

Cc1ccc(-c2csnn2)cc1 [Compound 170]
EC50: 10 µM
Score (Table 12 compound data): 42
Fit Curve Class (curve class number): 2.1
Fit HillSlope (curve fit): 4.4495
Fit Zero Activity [%] [1]: 3.4732%

CC(C)(C)N/C=C(\C#N)S(=O)(=O)c1ccc(Br)cc1 [Compound 173]
EC50: 11.2 µM
Score (Table 12 compound data): 42
Fit Curve Class (curve class number): 2.2
Fit HillSlope (curve fit): 0.9
Fit Zero Activity [%] [1]: 7.5952%

Cc1ccc(/C=C2\C(=O)Nc3ccccc32)o1 [drawing 564]
Results in α7+/− β-galactosidase assay (0.5 uM): 0.06962
Results in α7+/− β-galactosidase assay (1 uM): 0.01537
Results in α7+/− β-galactosidase assay (5 uM): −0.08809
Results in α7+/− β-galactosidase assay (10 uM): −0.1824
Results in α7+/− β-galactosidase assay (20 uM): −0.2196
Results in α7+/− β-galactosidase assay (40 uM): −0.6995

COCCSc1ccccc1C(=O)Nc1cc(C)cc(C)c1 [drawing 595]
Results in α7+/− β-galactosidase assay (0.5 uM): −0.06029
Results in α7+/− β-galactosidase assay (1 uM): −0.1236
Results in α7+/− β-galactosidase assay (5 uM): 0.04359
Results in α7+/− β-galactosidase assay (10 uM): 0.2482
Results in α7+/− β-galactosidase assay (20 uM): −0.09845
Results in α7+/− β-galactosidase assay (40 uM): −0.1003

COc1ccc(Nc2ncnc3ccc(C)cc23)cc1 [Compound 58]
AC50 (Table 12): 3.55 µM
Fit HillSlope (Table 12, curve fit): 0.9
Fit Zero Activity [%] [2]: −42.3624%
Fit Curve Class (Table 12): 2.1
Score [3]: 45

COc1ccc(/N=N/c2ccc(N)nc2N)cc1 [drawing 368]
Results in a α7+/− β-galactosidase assay, Myotubes, 0.5 uM: 0.1561
Results in a α7+/− β-galactosidase assay, Myotubes, 1 uM: 0.1699
Results in a α7+/− β-galactosidase assay, Myotubes, 5 uM: −0.00041
Results in a α7+/− β-galactosidase assay, Myotubes, 10 uM: −0.06379
Results in a α7+/− β-galactosidase assay, Myotubes, 20 uM: −0.1224
Results in a α7+/− β-galactosidase assay, Myotubes, 40 uM: −0.03271

COc1ccc(O)c(/C=N/NC(=O)c2cc(O)nc3ccccc23)c1 [Compound 179]
EC50: 5.62 µM
Score (Table 12 compound data): 42
Fit Curve Class (curve class number): 2.1
Fit HillSlope (curve fit): 2.2526
Fit Zero Activity [%] [1]: −35.6913%

CC(=O)Oc1c(Cl)cc(/C=C2\C(=O)Nc3ccccc32)cc1Cl [drawing 714]
Result in α7+/− β-galactosidase assay (0.5 uM): 0.1697
Result in α7+/− β-galactosidase assay (1 uM): −0.08406
Result in α7+/− β-galactosidase assay (5 uM): 0.02082
Result in α7+/− β-galactosidase assay (10 uM): 0.02563
Result in α7+/− β-galactosidase assay (20 uM): −0.00439
Result in α7+/− β-galactosidase assay (40 uM): −0.1892

O=C1CCC(C(=O)N2CCSCC2)CN1Cc1ccc(Cl)cc1 (stereo not shown) [drawing 697]
Results in α7+/− β-galactosidase assay (0.5 uM): 0.1419
Results in α7+/− β-galactosidase assay (1 uM): −0.02657
Results in α7+/− β-galactosidase assay (5 uM): 0.2626
Results in α7+/− β-galactosidase assay (10 uM): 0.4599
Results in α7+/− β-galactosidase assay (20 uM): 0.2652
Results in α7+/− β-galactosidase assay (40 uM): 0.222

O=C(Nc1ccccc1OC(=O)c1ccc(Cl)cc1)c1ccc(Cl)cc1 [drawing 401]
Results in a α7+/− β-galactosidase assay, Myotubes, 0.5 uM: −0.03464
Results in a α7+/− β-galactosidase assay, Myotubes, 1 uM: 0.02857
Results in a α7+/− β-galactosidase assay, Myotubes, 5 uM: −0.09525
Results in a α7+/− β-galactosidase assay, Myotubes, 10 uM: −0.1056
Results in a α7+/− β-galactosidase assay, Myotubes, 20 uM: −0.1495
Results in a α7+/− β-galactosidase assay, Myotubes, 40 uM: −0.3841

C[C@H]1CNC(=O)c2c(C(=O)Nc3ccc(CNC(=O)OC(C)(C)C)cc3)ncn21 [Compound 88]
AC50 (Table 12): 8.91 µM
Fit HillSlope (Table 12, curve fit): 1.01
Fit Zero Activity [%] [2]: 9.418%
Fit Curve Class (Table 12): 2.1
Score [3]: 43

COc1ccc(CCNC(=O)Cn2nnc(C(=O)Nc3ccc(Br)cc3)c2N)cc1OC [drawing 533]
Results in α7+/− β-galactosidase assay (0.5 uM): 0.1152
Results in α7+/− β-galactosidase assay (1 uM): 0.03848
Results in α7+/− β-galactosidase assay (5 uM): −0.06784
Results in α7+/− β-galactosidase assay (10 uM): −0.0702
Results in α7+/− β-galactosidase assay (20 uM): −0.3276
Results in α7+/− β-galactosidase assay (40 uM): −0.5608

CCNC(=O)C(=O)Nc1cc2c3c(c1)CCN3C(=O)CC2 [drawing 482]
Results in a α7+/− β-galactosidase assay, Myotubes, 0.5 uM: 0.05071
Results in a α7+/− β-galactosidase assay, Myotubes, 1 uM: −0.07574
Results in a α7+/− β-galactosidase assay, Myotubes, 5 uM: 0.4036
Results in a α7+/− β-galactosidase assay, Myotubes, 10 uM: −0.03505
Results in a α7+/− β-galactosidase assay, Myotubes, 20 uM: −0.1926
Results in a α7+/− β-galactosidase assay, Myotubes, 40 uM: −0.2686
